Measured values as given in US20100227853A1, “INHIBITORS OF CYCLIC AMP PHOSPHODIESTERASES” (Trustees of Boston College, priority 2008, published 2010).
pKi: −log10 of the molar value. “And” between values parts separate entries of the source, which are not always exact repeats. Equal entries are not always repeated. “Also recorded” adds a separate entry of the source.

Columns and labels:
CLL = CLL assay; type: cell-based
[1] = test system: transplanted tumors (lymphomas); assay: in vivo assay in mice with transplanted tumors (lymphomas)
Experimental: FIGS. 7A and 7B show results of an in vivo assay of BC54 action.
A 7 day experiment was conducted to determine the effect of BC54 on mice having transplanted tumors (lymphomas). Drugs were given i.p. once a day in 60-100 ul of PBS. • 3 animals got just BC54—to assess toxicity • 3 animals injected with lymphoma and treated with BC54 • 3 animals—no treatment • 1 animal—CHOP 0.5 MTD
BC54 dose was 3 ul of 100 mM solution per mouse per injection. […]. […] After 7 days, the untreated mice were terminally ill. The group treated with BC54 looked better although they do show some clinical signs (hunched posture etc). […] Tumor load was evaluated in the spleen and in the peritoneal lymph nodes (FIG. 7).

U937 cells = assay: TNF alpha release by LPS-treated U937 cells; type: cell-based
SIVmac239 = assay: antiviral activity, SIV p27 ELISA in infected PBMC; type: cell-based, rhesus macaques; conditions: for reduction in viral load: treatment on Day 1 and Day 3, SIV p27 ELISA
Experimental: PBMC cells were isolated from uninfected rhesus macaques and mitogen stimulated (PHA). The cells were then incubated with SIVmac239 for 2 hours, following which they were washed to remove any free virus. BC54 was then added to the infected cells. Fresh compound was added after 3 days. The antiviral activity was measured by SIV p27 ELISA on day 3 and 7, while the cell viability was determined on day 7 by MTT assay. The treatment of cells on Day 1 and Day 3, leads to a 30-fold and 100-fold reduction in viral load on Days 4 and 7, respectively.

[2] = test system: PDE4A, PDE4B, PDE4D, PDE7A, PDE7B, PDE8A, PDE3A; assay: Summary of PDE inhibitor profile
Lymphoma cells = assay: in vitro assay on lymphoma cells (24 hours, Hoechst stain, fsc/ssc); type: cell-based
Experimental: FIGS. 6A and 6B show the in vitro assay of BC54 action. Lymphoma cells are treated with the drug for 24 hours, then stained with Hoechst dye. The cells form a clearly defined population on the fsc/ssc dot plot. Vincristine treatment was used as a positive control. […] BC54 is referred to in the figure as S54.

PBMC cells = assay: proliferation and viability of PBMC cells; type: cell-based
Excerpt: FIGS. 8A, 8B and 8C show the effect of BC54 on the proliferation and viability of PBMC cells.

PDE7B [3] = molecular target: T1, PDE7B (Rattus norvegicus, UniProt A0A0G2JXU0); assay: in vitro enzyme assay of PDE7B activity in extracts from rat pulmonary endothelial cells; type: biochemical
T1 construct: endogenous in cells; host or cells: rat pulmonary endothelial cells (extract)
T1 sequence (A0A0G2JXU0 1-446): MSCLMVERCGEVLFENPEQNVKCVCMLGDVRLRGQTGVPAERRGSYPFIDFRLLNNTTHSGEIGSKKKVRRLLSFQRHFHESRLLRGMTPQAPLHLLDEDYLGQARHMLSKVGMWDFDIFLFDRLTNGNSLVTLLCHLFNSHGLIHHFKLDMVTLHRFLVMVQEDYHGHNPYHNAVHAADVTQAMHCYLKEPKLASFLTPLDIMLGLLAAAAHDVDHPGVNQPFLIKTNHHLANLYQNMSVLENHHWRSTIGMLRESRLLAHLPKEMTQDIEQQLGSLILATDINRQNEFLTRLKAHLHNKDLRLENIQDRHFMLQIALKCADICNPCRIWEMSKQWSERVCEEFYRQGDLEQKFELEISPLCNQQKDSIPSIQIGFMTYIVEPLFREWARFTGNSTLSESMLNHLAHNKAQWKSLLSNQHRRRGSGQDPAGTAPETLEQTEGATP
Excerpt: FIG. 13 is the in vitro enzyme assays of PDE7B activity in extracts made from rat pulmonary endothelial cells.

Jurkat cells = assay: IL2 secretion by concanavalin A treated Jurkat cells; type: cell-based, human; conditions: ConA 10 μg/ml, prostaglandin E2, 24 hours
Excerpt: Jurkat cells, a human T cell lymphoblast-like cell line, increase expression of the cytokine IL2 in response to stimulation by concanavalin A (conA). This effect can be inhibited by elevated cAMP levels, although PDE4 inhibition alone appears to be insufficient to prevent IL2 induction (Kaminuma et al., Immunopharmacology, 1998 January; 38(3):247-52). However, the anti-inflammatory effect of PDE4 inhibitors can be detected using this assay by their ability to enhance the reduction of IL2 secretion by prostaglandin E2. IL2 levels are measured in Jurkat cells (5×10^5 cells/ml) stimulated by 10 μg/ml ConA in the presence of prostaglandin E2, with or without each test compound ([…]). After incubation at 37° C. for 24 hours, the resulting supernatant were collected and kept frozen at −70° C. until the time of assay. IL2 in the supernatants were measured by ELISA and the data is presented as a percentage of the PGE2 treated culture (FIG. 12).

PDE7B [4] = molecular target: PDE7B (Homo sapiens, UniProt Q9NP56); assay: cAMP elevation in yeast PDE7B-expressing strain; type: cell-based; design: targets used in the assays are full-length proteins (as opposed to simply the catalytic domain); expressed in transfected cells; host or cells: Schizosaccharomyces pombe
Chain of PDE7B (Homo sapiens, UniProt Q9NP56) (Q9NP56 whole entry, species assumed, the tested form may be a part): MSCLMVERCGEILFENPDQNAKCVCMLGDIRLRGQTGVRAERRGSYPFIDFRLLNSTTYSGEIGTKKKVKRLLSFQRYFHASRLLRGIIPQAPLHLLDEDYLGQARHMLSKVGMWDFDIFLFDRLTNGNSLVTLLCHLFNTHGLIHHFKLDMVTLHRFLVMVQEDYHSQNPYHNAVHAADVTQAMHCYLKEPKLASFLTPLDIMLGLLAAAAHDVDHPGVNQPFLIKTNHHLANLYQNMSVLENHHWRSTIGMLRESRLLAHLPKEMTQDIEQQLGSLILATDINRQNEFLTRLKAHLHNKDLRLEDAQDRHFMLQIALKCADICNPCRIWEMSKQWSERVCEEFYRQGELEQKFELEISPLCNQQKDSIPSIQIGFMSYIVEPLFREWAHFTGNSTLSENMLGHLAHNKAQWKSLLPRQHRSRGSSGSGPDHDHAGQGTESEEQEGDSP

PDE2A [5] = molecular target: T2, PDE2A (Mus musculus, UniProt Q922S4); assay: cAMP levels in yeast strain expressing PDE2A; type: cell-based, murine; conditions: 20 μM EHNA as compared to 200 μM
T2 construct: targets used in the assays are full-length proteins (as opposed to simply the catalytic domain); expressed in transfected cells; host or cells: Schizosaccharomyces pombe, PDE gene integrated in place of cgs2 (strains LWP371, LWP364)
T2 sequence (Q922S4 1-939): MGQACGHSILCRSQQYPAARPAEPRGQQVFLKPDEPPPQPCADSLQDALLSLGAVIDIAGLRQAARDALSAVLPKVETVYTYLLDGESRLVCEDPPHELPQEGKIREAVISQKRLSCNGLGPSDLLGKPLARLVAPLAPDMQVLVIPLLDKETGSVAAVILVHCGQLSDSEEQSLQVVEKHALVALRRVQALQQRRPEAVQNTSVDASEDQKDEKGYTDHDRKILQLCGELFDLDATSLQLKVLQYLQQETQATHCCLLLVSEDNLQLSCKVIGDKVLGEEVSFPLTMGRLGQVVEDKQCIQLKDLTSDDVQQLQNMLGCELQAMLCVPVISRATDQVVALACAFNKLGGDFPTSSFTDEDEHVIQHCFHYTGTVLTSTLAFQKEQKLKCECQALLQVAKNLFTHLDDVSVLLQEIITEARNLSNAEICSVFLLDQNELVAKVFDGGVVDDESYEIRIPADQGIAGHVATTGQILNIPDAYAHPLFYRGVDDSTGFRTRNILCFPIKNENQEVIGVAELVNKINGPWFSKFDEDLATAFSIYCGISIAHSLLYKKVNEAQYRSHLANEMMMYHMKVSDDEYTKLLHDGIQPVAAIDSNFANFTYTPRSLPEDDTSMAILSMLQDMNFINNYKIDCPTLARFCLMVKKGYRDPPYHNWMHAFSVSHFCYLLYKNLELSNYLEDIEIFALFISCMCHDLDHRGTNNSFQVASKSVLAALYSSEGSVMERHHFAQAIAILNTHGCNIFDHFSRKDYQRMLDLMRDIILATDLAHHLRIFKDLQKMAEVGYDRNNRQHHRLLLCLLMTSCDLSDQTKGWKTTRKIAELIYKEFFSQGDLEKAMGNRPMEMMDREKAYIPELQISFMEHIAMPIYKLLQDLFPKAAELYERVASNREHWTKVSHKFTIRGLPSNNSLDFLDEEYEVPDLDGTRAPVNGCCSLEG
Experimental: Values represent the average and SD of two or three independent experiments. […] The strains used are as in FIG. 5A, together with strain CHP1141 (PDE8A). Values represent the average and SD of two or three independent experiments.
(§1) β-galactosidase assays and characterization of 5FOA-sensitivity were carried out as previously described^10. cAMP assays were performed on exponential phase cells grown in EMM complete medium (3% glucose), using the Assay Designs cAMP EIA kit, according to manufacturer's instructions (Assay Designs, Ann arbor, Mich.).
Thus, PDE inhibition can be indirectly quantitated by measuring the effect of a compound on cAMP levels in target yeast strains.

PDE2A [6] = molecular target: T2, PDE2A; assay: fbp1-lacZ β-galactosidase reporter assay, PDE2A strain; type: cell-based, murine; conditions: strain LWP367 (PDE2A)
Experimental: as §1
The effect of known PDE inhibitors on the expression of the fbp1-lacZ fusion in murine PDE-expressing strains was tested. […] For Table 4 β-galactosidase activity was determined from 3 to 4 independent exponential phase cultures. The average±SD represents specific activity per milligram of soluble protein.

[7] = test system: PDE4A, PDE4B, PDE4D, PDE7A, PDE7B, PDE8A, PDE3A; assay: Summary of PDE inhibitor profile; design: key: (1): Weak PDE7A inhibitor; (2): Strong PDE7A inhibitor; (3): Lillte/no activity under conditions used; (4): Weak PDE4A inhibitor; conditions: overall classification, Table 18 footnotes
PDE7A = PDE7A (Homo sapiens, UniProt Q13946); assay: cAMP response in yeast strain expressing PDE7A; type: cell-based; design: targets used in the assays are full-length proteins (as opposed to simply the catalytic domain); expressed in transfected cells; host or cells: Schizosaccharomyces pombe, PDE gene integrated in place of cgs2; conditions: PDE 7A; relative to BRL50481
Chain of PDE7A (Q13946 whole entry, the tested form may be a part): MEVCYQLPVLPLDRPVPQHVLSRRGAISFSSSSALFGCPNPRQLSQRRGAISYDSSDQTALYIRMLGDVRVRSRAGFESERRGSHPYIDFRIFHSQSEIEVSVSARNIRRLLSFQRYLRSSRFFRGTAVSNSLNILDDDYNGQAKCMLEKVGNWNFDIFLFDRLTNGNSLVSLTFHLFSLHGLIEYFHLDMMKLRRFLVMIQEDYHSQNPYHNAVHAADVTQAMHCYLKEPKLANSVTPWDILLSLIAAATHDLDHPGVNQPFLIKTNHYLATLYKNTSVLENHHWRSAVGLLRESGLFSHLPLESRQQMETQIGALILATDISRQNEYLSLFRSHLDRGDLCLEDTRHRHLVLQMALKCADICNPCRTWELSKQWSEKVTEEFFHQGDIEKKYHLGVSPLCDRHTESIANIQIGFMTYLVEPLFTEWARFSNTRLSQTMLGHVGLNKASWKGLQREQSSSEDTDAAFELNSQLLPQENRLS

CCOC(=O)c1cc2c(=O)n3ccccc3nc2n(C2CCCCC2)/c1=N/C(C)=O [BC54]
activity in CLL assay, in words (CLL): good activity | toxicity in mice ([1]; 3 ul of 100 mM solution per mouse per injection, i.p. once a day): no major signs of toxicity | spleen tumor burden ([1]; i.p. once a day, 7 days): No significant effect | tumor load in lymph nodes ([1]; i.p. once a day, 7 days): reduces the tumor load in lymph nodes | clinical appearance after 7 days ([1]; lymphoma-bearing mice): looked better | efficacy in mouse DLBCL model, in words ([1]; mouse, in vivo): effective | TNF alpha reduction, conclusion in words (U937 cells): good activity | efficacy in SIV cell culture, in words (SIVmac239): effective | reduction in viral load (SIVmac239; Day 4): 30 fold | reduction in viral load (SIVmac239; Day 7): 100 fold | PDE inhibitor profile, in words [2]: good PDE4 and PDE7 combination inhibitor; also recorded: affects PDE4D, but is weaker than on other 4 s and 7 s | effect on PDE8A or PDE3A [2]: no effect | apoptosis of lymphoma cells, in words (Lymphoma cells): induces apoptosis | "live" population gone (Lymphoma cells; 24 hours treatment): ~100% | toxicity to PBMC cells (proliferation and viability) (PBMC cells): not found to be very toxic

Cc1sc2ncnc(NC3CCCCC3)c2c1C [BC28]
KI lower than that of BRL50481 (PDE7B [3]; PDE7B, rat pulmonary endothelial cell extracts): approximately 100 fold | pKi (PDE7B [3]; cell extracts, read-out: KI on PDE7 (PDE7B) from rat pulmonary endothelial cells): ~6.70 and 6.70 | IL2 expression from Jurkat cells, in words (Jurkat cells): strong reduction | TNF alpha reduction, conclusion in words (U937 cells): TNFα synergy with PDE4 inhibitors, though not as strong as for BC30 | cAMP in yeast PDE7B-expressing strain, in words (PDE7B [4]): induced cAMP elevation | PDE inhibitor profile, in words [2]: potent PDE7B inhibitor

CCCCCC[C@@H]([C@@H](C)O)n1cnc2c(N)ncnc21 (racemic) [EHNA]
inhibition of PDE2A judged by cAMP levels (PDE2A [5]): partial inhibition | β-galactosidase activity (PDE2A [6]; 5 μM EHNA): 473 ± 19 | β-galactosidase activity (PDE2A [6]; 20 μM EHNA): 197 ± 51 | β-galactosidase activity (PDE2A [6]; 200 μM EHNA): 45 ± 3

COc1ccc2c(c1)C1(C)CCC(=O)CC1CC2 (single isomer, unassigned) [Compound 11]
PDE inhibitor profile (Table 18) [7]: 11 (3) | cAMP Response (% BRL50481) 7A (PDE7A): 89.00 % BRL50481
